What was measured:
Format in all cases: biochemical
[1] = molecular target: T1, kinases (Table B) (Homo sapiens, UniProt P15056, V600E); assay: Kinase selectivity, Z'-LYTE or Adapta assay platforms (Life Technologies); conditions: BRAF V599E, Z-LYTE, read-out: percent inhibition BRAF V599E; for inhibition at 1 µM: test conc 1 μM
T1 construct: purchased Life Technologies Corporation

[2] = tested on: kinases (Table B); assay: as above; conditions: for percent inhibition CDK1/cyclin B / percent inhibition CLK2 / percent inhibition JAK3: Z-LYTE; for percent inhibition IRAK1: Adapta
[3] = molecular target: T2, kinases (Table B) (Homo sapiens, UniProt O96017); assay: as above; conditions: CHEK2 (CHK2), Z-LYTE, read-out: percent inhibition CHEK2 (CHK2); for inhibition at 1 µM: test conc 1 μM
T2 construct: purchased Life Technologies Corporation

[4] = molecular target: T3, kinases (Table B) (Homo sapiens, UniProt P45983); assay: as above; conditions: MAPK8 (JNK1), Z-LYTE, read-out: percent inhibition MAPK8 (JNK1); for inhibition at 1 µM: test conc 1 μM
T3 construct: purchased Life Technologies Corporation

[5] = molecular target: T4, kinases (Table B) (Homo sapiens, UniProt Q96GD4); assay: as above; conditions: AURKB (Aurora B), Z-LYTE, read-out: percent inhibition AURKB (Aurora B); for inhibition at 1 µM: test conc 1 μM; for inhibition at 0.1 µM: test conc 0.100 μM
T4 construct: purchased Life Technologies Corporation

[6] = molecular target: T5, kinases (Table B) (Homo sapiens, UniProt Q13627); assay: as above; conditions: DYRK1A, Z-LYTE, read-out: percent inhibition DYRK1A; for inhibition at 1 µM: test conc 1 μM; for inhibition at 0.1 µM: test conc 0.100 μM
T5 construct: purchased Life Technologies Corporation

[7] = molecular target: T6, kinases (Table B) (Homo sapiens, UniProt P28482); assay: as above; conditions: MAPK1 (ERK2), Z-LYTE, read-out: percent inhibition MAPK1 (ERK2); for inhibition at 1 µM: test conc 1 μM; for inhibition at 0.1 µM: test conc 0.100 μM
T6 construct: purchased Life Technologies Corporation

[8] = molecular target: T7, LRRK2(G2019S mutation, GST-LRRK2(amino acids 970-2527)) (Homo sapiens, UniProt Q5S007, G2019S); assay: LRRK2 Km ATP LanthaScreen Assay
T7 construct: GST-LRRK2(amino acids 970-2527); GST (N); purchased Life Technologies Corporation
Procedure, shortened: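 IC50 values are means of several runs in the Km-ATP LanthaScreen format, analysed by curve fitting of the LanthaScreen read-out.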

[9] = molecular target: T7, LRRK2(G2019S mutation, GST-LRRK2(amino acids 970-2527)); assay: LRRK2 5 mM ATP LanthaScreen Assay; conditions: mean IC50 of several tests
Protocol: The data presented for the 5 mM and Km ATP LanthaScreen™ Assay represents mean IC50 values based on several test results and may have reasonable. deviations depending on the specific conditions and reagents used. Reagents for the LRRK2 5 mM and Km ATP LanthaScreen™ Assay were purchased from Life Technologies Corporation.
LRRK2 5 mM ATP LanthaScreen™ Assay • a) 400 nl of a 1:2.15 serial dilution of test compound (98 μM top assay concentration) is spotted via Labcyte Echo to certain wells in a 384 well black, untreated plate. […] Results are analysed using Assay Data Analyzer.

[10] = Km ATP LanthaScreen, mean IC50 of several tests, read-out: LRRK2 IC50
[11] = Km ATP LanthaScreen Assay, LRRK2 G2019S, mean IC50 values, read-out: LRRK2 IC50

T6 sequence (P28482 whole entry): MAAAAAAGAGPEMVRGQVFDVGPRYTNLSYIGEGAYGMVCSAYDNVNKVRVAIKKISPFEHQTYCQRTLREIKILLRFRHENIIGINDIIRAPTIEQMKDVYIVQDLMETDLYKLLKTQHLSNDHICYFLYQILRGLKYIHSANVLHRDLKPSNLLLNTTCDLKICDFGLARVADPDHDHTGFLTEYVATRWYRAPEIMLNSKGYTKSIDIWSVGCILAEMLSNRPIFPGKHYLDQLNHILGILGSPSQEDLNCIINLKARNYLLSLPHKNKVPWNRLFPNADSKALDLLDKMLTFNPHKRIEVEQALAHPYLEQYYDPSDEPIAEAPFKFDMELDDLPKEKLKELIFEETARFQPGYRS
T2 sequence (O96017 whole entry): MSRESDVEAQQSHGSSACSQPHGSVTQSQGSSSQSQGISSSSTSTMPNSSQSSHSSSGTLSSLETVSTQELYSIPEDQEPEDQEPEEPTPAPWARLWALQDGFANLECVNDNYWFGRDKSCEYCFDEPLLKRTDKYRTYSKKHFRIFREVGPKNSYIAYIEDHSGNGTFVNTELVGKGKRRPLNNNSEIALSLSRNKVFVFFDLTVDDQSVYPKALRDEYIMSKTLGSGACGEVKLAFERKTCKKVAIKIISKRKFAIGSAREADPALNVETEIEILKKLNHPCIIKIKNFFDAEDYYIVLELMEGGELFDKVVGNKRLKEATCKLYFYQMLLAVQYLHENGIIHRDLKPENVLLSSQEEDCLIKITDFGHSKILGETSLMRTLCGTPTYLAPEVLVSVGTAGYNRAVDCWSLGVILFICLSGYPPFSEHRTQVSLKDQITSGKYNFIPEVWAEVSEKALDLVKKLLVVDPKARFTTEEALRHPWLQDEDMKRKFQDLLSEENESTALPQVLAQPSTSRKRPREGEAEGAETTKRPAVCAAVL
T3 sequence (P45983 whole entry): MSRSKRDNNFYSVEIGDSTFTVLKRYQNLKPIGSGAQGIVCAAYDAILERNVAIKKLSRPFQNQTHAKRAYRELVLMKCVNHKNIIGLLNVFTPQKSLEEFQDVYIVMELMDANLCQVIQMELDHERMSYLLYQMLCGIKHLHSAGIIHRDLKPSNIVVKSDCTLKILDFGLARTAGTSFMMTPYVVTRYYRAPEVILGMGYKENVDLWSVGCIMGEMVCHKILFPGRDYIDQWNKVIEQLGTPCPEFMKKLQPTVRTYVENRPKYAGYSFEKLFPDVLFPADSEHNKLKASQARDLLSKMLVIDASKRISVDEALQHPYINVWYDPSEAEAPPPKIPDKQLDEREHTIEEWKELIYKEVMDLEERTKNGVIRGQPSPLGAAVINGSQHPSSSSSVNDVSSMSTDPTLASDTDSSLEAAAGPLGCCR
T4 sequence (Q96GD4 whole entry): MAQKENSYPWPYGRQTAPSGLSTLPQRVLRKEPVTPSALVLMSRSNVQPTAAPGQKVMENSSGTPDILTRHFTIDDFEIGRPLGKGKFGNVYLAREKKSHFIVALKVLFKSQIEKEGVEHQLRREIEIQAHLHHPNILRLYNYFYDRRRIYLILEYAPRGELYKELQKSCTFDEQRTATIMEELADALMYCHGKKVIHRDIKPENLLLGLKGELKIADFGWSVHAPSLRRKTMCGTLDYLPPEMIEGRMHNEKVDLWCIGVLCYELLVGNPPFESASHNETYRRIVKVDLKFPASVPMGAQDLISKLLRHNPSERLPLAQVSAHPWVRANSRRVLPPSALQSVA
T1 sequence (P15056 whole entry V600E): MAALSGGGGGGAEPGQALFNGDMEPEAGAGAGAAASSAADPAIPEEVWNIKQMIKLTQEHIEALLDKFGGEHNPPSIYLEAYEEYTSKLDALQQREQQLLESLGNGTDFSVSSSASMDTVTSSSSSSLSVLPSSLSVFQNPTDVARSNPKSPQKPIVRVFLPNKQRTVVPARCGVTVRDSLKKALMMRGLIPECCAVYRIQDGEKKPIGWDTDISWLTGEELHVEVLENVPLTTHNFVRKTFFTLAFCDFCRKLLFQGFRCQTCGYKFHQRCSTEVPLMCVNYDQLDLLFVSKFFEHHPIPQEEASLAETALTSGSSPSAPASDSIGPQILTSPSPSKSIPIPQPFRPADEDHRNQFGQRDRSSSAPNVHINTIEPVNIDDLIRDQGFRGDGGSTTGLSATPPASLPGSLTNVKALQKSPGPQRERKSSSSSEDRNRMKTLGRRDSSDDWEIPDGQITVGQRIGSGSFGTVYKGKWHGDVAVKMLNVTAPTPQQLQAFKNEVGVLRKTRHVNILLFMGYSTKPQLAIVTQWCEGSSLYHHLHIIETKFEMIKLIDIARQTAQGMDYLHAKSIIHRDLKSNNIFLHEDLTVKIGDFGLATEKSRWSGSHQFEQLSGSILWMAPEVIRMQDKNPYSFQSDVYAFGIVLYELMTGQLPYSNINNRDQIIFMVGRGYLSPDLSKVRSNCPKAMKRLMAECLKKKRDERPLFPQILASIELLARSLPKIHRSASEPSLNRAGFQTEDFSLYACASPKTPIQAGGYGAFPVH
T7 sequence (Q5S007 970-2527 G2019S): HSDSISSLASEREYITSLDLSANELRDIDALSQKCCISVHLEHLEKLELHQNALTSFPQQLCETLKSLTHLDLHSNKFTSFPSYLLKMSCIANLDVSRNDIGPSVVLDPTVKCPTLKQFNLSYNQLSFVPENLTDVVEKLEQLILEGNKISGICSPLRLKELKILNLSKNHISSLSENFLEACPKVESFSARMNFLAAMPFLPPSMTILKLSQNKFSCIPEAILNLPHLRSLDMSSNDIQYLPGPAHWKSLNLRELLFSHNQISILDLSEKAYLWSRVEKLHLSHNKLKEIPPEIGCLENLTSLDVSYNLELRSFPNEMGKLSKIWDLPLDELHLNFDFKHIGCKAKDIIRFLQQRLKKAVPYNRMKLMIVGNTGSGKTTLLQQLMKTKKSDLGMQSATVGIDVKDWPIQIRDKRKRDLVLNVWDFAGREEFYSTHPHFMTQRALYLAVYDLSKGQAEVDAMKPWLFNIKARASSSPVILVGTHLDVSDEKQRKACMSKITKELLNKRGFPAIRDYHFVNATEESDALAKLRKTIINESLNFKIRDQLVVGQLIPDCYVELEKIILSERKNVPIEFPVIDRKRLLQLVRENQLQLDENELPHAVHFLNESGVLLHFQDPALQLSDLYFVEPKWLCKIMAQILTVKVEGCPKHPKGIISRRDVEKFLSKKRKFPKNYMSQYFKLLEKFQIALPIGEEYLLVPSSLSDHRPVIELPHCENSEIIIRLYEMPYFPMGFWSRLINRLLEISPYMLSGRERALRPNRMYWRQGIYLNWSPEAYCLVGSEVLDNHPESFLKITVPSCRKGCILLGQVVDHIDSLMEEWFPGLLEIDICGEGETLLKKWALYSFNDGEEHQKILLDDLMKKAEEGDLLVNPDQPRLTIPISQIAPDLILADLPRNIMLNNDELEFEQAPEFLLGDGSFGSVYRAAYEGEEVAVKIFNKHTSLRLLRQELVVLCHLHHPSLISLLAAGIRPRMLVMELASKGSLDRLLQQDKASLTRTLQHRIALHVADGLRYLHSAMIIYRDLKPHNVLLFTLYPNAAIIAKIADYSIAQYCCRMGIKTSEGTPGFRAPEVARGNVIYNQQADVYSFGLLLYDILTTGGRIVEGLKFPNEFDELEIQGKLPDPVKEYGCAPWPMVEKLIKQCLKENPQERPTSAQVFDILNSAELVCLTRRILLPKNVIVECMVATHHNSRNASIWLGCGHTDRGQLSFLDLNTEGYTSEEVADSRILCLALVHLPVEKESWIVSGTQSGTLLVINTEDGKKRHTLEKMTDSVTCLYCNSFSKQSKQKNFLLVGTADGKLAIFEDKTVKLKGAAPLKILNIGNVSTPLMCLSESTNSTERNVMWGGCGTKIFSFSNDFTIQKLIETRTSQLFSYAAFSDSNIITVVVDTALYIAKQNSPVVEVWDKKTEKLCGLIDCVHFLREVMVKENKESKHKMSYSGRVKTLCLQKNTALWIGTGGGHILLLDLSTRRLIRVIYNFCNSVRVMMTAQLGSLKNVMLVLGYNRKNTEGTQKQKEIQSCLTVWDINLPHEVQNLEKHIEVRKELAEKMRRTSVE

## CC(C)Oc1ccc2[nH]nc(-c3ccnc(N4CCOCC4)c3)c2c1 [Example 400]
[1]
  inhibition at 1 µM: 51%
[2]; test conc 1 μM
  percent inhibition CDK1/cyclin B: 29%
  percent inhibition CLK2: 47%
  percent inhibition IRAK1: 11%
  percent inhibition JAK3: 49%
[3]
  inhibition at 1 µM: 16%
[4]
  inhibition at 1 µM: 72%
[5]
  inhibition at 1 µM: 9%
[6]
  inhibition at 1 µM: 9%
[7]
  inhibition at 1 µM: 41%
[8]; [10]
  IC50: 1.9 nM
[9]
  IC50: 14 nM

## CC(C)Oc1ccc2[nH]nc(-c3ccnc(N4CCC(O)CC4)c3)c2c1 [Example 285]
[8]; [10]
  IC50: 3.8 nM
[9]
  IC50: 15 nM

## Cn1cc(-c2ccc3[nH]nc(-c4ccnc(N5CCN(S(C)(=O)=O)CC5)c4)c3c2)cn1 [Example 381]
[1]; test conc 0.100 μM
  inhibition at 0.1 µM: 11%
[2]; test conc 0.100 μM
  percent inhibition CDK1/cyclin B: 26%
  percent inhibition CLK2: 91%
  percent inhibition IRAK1: 20%
  percent inhibition JAK3: 4%
[3]; test conc 0.100 μM
  inhibition at 0.1 µM: 19%
[4]; test conc 0.100 μM
  inhibition at 0.1 µM: 25%
[5]
  inhibition at 0.1 µM: 13%
[6]
  inhibition at 0.1 µM: 78%
[7]
  inhibition at 0.1 µM: 11%
[8]; [10]
  IC50: 1.9 nM
[9]
  IC50: 24 nM

## Cn1cc(-c2ccc3[nH]nc(-c4ccnc(N5CCOCC5)c4)c3c2)cn1 [Example 321]
[8]; [10]
  IC50: < 0.6 nM
[9]
  IC50: 12 nM

## Cn1cc(-c2ccc3[nH]nc(-c4ccnc(N5CC(F)C5)c4)c3c2)cn1 [Ex 376]
[8]; [10]
  IC50: < 0.6 nM
[9]
  IC50: 23 nM

## CC(C)Oc1ccc2[nH]nc(-c3ccnc(N4CCN(C)CC4)c3)c2c1 [Example 383]
[2]; test conc 0.100 μM
  percent inhibition CDK1/cyclin B: 5%
  percent inhibition CLK2: 26%
  percent inhibition IRAK1: 2%
  percent inhibition JAK3: 7%
[5]
  inhibition at 0.1 µM: 8%
[6]
  inhibition at 0.1 µM: 8%
[7]
  inhibition at 0.1 µM: 10%
[8]; [10]
  IC50: 0.75 nM
[9]
  IC50: 22 nM

## Cc1c(-c2ccc3[nH]nc(-c4ccnc(N5CCOCC5)c4)c3c2)cnn1C [Example 316]
[8]; [10]
  IC50: 2.1 nM
[9]
  IC50: 8 nM

## Oc1cc(-c2ccc3[nH]nc(-c4ccnc(N5CCC(O)CC5)c4)c3c2)ccn1 [Example 121]
[8]; [11]
  IC50: 1.4 nM
[9]
  IC50: 16 nM

## CC(C)Oc1ccc2[nH]nc(-c3ccnc(N4CCN(S(C)(=O)=O)CC4)c3)c2c1 [Example 289]
[1]
  inhibition at 1 µM: 64%
[2]; test conc 1 μM
  percent inhibition CDK1/cyclin B: 18%
  percent inhibition CLK2: 49%
  percent inhibition IRAK1: 6%
  percent inhibition JAK3: 29%
[3]
  inhibition at 1 µM: 26%
[4]
  inhibition at 1 µM: 54%
[5]
  inhibition at 1 µM: 23%
[6]
  inhibition at 1 µM: 12%
[7]
  inhibition at 1 µM: 55%
[8]; [10]
  IC50: 2.7 nM
[9]
  IC50: 16 nM

## CC(C)Oc1ccc2[nH]nc(-c3ccnc(N4CCNC(=O)C4)c3)c2c1 [Example 311]
[8]; [10]
  IC50: < 0.6 nM
[9]
  IC50: 14 nM

## CCCOc1ccc2[nH]nc(-c3ccnc(N4CCN(S(C)(=O)=O)CC4)c3)c2c1 [Example 295]
[8]; [10]
  IC50: 17 nM

## COc1cccc(F)c1-c1ccc2[nH]nc(-c3ccnc(N4CCOCC4)c3)c2c1 [Example 314]
[8]; [10]
  IC50: < 0.6 nM

## OC[C@H]1CCN(c2cc(-c3n[nH]c4ccc(OC(F)(F)F)cc34)ccn2)C1 [Example 248]
[8]; [11]
  IC50: 96 nM

## COc1ccnc(F)c1-c1ccc2[nH]nc(-c3ccnc(N4CCN(S(C)(=O)=O)CC4)c3)c2c1 [Example 366]
[8]; [10]
  IC50: < 0.6 nM

## COc1cnc(-c2ccc3[nH]nc(-c4ccnc(N5CCOCC5)c4)c3c2)nc1 [Example 339]
[8]; [10]
  IC50: 22 nM

## OC1CCN(c2cc(-c3n[nH]c4ccccc34)ccn2)CC1 [Example 10]
[8]; [11]
  IC50: 24 nM

## O=C(CN1CCN(c2cc(-c3n[nH]c4ccccc34)ccn2)CC1)N1CCOCC1 [Example 57]
[8]; [11]
  IC50: 6.1 nM

## CC(C)Oc1ccc2[nH]nc(-c3ccnc(N4CCC(n5ccnc5)C4)c3)c2c1 (stereo not drawn) [Example 171]
[8]; [11]
  IC50: 3.1 nM

## Cc1cc(C(=O)Nc2cc(-c3n[nH]c4ccc(OC(C)C)cc34)ccn2)n(C)n1 [Example 141]
[8]; [11]
  IC50: 51.4 nM

## Cc1cnc(-c2ccc3[nH]nc(-c4ccnc(N5CCOCC5)c4)c3c2)nc1 [Example 338]
[8]; [10]
  IC50: 8.9 nM

## Cn1cncc1-c1ccc2[nH]nc(-c3ccnc(N4CCOCC4)c3)c2c1 [Example 313]
[8]; [10]
  IC50: < 0.6 nM

## O=C1CCCC2(CCN(c3cc(-c4n[nH]c5ccccc45)ccn3)CC2)N1 [Example 61]
[8]; [11]
  IC50: 14 nM

## c1ccc2c(-c3ccnc(N4CCOCC4)c3)n[nH]c2c1 [Example 1]
[8]; [10]
  IC50: 16 nM

## CCOc1ccc2[nH]nc(-c3ccnc(NCCO)c3)c2c1 [Example 355]
[8]; [10]
  IC50: 10 nM

## CC(C)Oc1ccc2[nH]nc(-c3ccnc(NC(=O)CCc4cnn(C)c4)c3)c2c1 [Example 162]
[8]; [11]
  IC50: 27.2 nM

## CN1CCN(c2cc(-c3n[nH]c4ccc(-c5cnn(C)c5)cc34)ccn2)CC1=O [Example 279]
[8]; [10]
  IC50: 2.9 nM

## CC(C)Oc1ccc2[nH]nc(-c3ccnc(N4CCCC(CO)C4)c3)c2c1 (stereo not drawn) [Example 131]
[8]; [11]
  IC50: 1.5 nM

## OCCC1CN(c2cc(-c3n[nH]c4ccc(CO)cc34)ccn2)CCO1 (stereo not drawn) [Example 128]
[8]; [11]
  IC50: 10 nM

## CC(C)Oc1ccc2[nH]nc(-c3ccnc(N4CCOC5(CC5)C4)c3)c2c1 [Example 378]
[8]; [10]
  IC50: 7.5 nM

## FC(F)(F)Oc1ccc2[nH]nc(-c3ccnc(N4CCOCC4)c3)c2c1 [Example 374]
[8]; [10]
  IC50: 28 nM

## CN(C)[C@@H]1CCN(c2cc(-c3n[nH]c4ccccc34)ccn2)C1 [Example 35]
[8]; [11]
  IC50: 28 nM

## c1ccc2c(-c3ccnc(N4CCCCCC4)c3)n[nH]c2c1 [Example 2]
[8]; [11]
  IC50: 76 nM

## CC(C)Oc1ccc2[nH]nc(-c3ccnc(N4CC(F)(F)C4)c3)c2c1 [Example 213]
[8]; Km ATP LanthaScreen Assay; LRRK2 G2019S; mean IC50 values; Examples 185-215; read-out: LRRK2 IC5)
  IC50: 16.7 nM

## FC1(F)CCN(c2cc(-c3n[nH]c4ccccc34)ccn2)CC1 [Example 28]
[8]; [11]
  IC50: 57 nM

## CC(C)Oc1ccc2[nH]nc(-c3ccnc(N4CCC(n5cccn5)CC4)c3)c2c1 [Example 173]
[8]; [11]
  IC50: 4.9 nM

## c1ccc2c(-c3ccnc(N4Cc5cncnc5C4)c3)n[nH]c2c1 [Example 59]
[8]; [11]
  IC50: 37 nM

## CCOc1ccc2[nH]nc(-c3ccnc(N4CCC(n5cccn5)C4)c3)c2c1 (stereo not drawn) [Example 222]
[8]; [11]
  IC50: 9.3 nM

From patent US9440952B2, “Compounds inhibiting leucine-rich repeat kinase enzyme activity” (Merck Sharp & Dohme Corp., priority 2013, dated 2016)
